Reference: patent US5789434A, “Derivatives of substituted 4-biarylbutyric acid as matrix metalloprotease inhibitors” (priority 1995, dated 1998)
Counter-ions that a name gives are not always drawn.

What was measured:
MMP-9 = target: T1, MMP-9 (Homo sapiens, UniProt P14780); test: Thiopeptilide MMP-9 Inhibition Assay; assay type: biochemical; conditions: for inhibition at 5 µM: read-out: MMP-9: Thiopep. % inhibition; for IC50: pH 6.5, x (n) = average of n determinations, read-out: MMP-9: Thiopep. IC50
T1 construct: from tissue; host or cells: human polymorphonuclear leukocytes (PMN) from whole blood (New York Blood Center), PMA-stimulated supernatant
T1 sequence (P14780 107-707 limits assumed): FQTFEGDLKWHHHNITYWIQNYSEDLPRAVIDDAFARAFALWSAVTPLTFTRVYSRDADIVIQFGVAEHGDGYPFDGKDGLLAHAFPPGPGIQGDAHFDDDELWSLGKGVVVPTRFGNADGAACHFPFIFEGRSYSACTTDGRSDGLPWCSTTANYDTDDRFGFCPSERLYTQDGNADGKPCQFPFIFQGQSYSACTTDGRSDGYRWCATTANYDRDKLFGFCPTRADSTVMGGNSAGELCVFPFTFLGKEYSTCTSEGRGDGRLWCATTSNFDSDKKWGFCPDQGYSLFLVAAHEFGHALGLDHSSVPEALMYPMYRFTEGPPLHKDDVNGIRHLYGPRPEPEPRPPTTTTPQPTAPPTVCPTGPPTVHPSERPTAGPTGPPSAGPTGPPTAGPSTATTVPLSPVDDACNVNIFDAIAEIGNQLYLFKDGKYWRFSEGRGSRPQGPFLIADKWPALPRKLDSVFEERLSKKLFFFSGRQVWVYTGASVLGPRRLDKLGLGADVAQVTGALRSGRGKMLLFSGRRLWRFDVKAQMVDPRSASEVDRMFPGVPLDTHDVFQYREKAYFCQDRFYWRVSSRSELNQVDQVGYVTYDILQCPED

MMP-3 = target: T2, MMP-3 (Homo sapiens, UniProt P08254); test: Primary Thiopeptilide MMP-3 Inhibition Assay; assay type: biochemical; conditions: for inhibition at 5 µM: read-out: MMP-3 Thiopep. % inhibition; for IC50: pH 6.5, 13 nM stromelysin, x (n) = average of n determinations, read-out: MMP-3 Thiopep. IC50
T2 construct: Truncated Prostromelysin-257 was expressed in a soluble form in E.coli; made in house; host or cells: E. coli
T2 sequence (P08254 100-274 limits assumed): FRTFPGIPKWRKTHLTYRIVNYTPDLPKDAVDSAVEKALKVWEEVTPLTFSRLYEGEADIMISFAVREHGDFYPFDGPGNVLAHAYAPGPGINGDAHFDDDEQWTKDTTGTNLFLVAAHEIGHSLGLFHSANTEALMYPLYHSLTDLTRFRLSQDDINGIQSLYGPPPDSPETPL
Procedure: Enzyme: recombinant stromelysin expressed in E.coli and purified as described above. […] The protocols for the assay of compounds as stromelysin inhibitors was the same as that used for MMP-9 except that the assay buffer was 50 mM MES, pH 6.5 containing 150 mM NaCl, 10 mM CaCl2, 0.005% Brij, and 1% DMSO.

SMILES: CC(C)(CCC(=O)c1ccc(-c2ccc(Cl)cc2)cc1)C(=O)O [Example 337, [1,1'-Biphenyl]-4-pentanoic acid, 4'-chloro-α,α-dimethyl-δ-oxo-]
- inhibition at 5 µM (MMP-9): 2%
- inhibition at 5 µM (MMP-3): 20%

SMILES: O=C(O)[C@H]1[C@@H](Sc2ccc(F)cc2)CC[C@@H]1C(=O)c1ccc(-c2ccc(Cl)cc2)cc1 (relative stereo) [Example 303, Cyclopentanecarboxylic acid, 2-[(4'-chloro[1,1'-biphenyl]-4-yl)carbonyl]-5-[(4-fluorophenyl)thio]-, (1α,2β,5α)-]
- IC50 (MMP-9): 1400 nM
- IC50 (MMP-3): 310 nM

SMILES: O=C(O)CCC(=O)c1ccc(-c2ccccc2Cl)cc1 [Example 10, [1,1'-Biphenyl]-4-butanoic acid, 2'-chloro-γ-oxo-, reference compound]
- inhibition at 5 µM (MMP-9): 0%
- inhibition at 5 µM (MMP-3): 1%

SMILES: CCOc1ccc(-c2ccc(C(=O)CC(CCCc3ccccc3)C(=O)O)cc2)cc1 (stereo not drawn) [Example 75, [1,1'-Biphenyl]-4-butanoic acid, 4'-ethoxy-γ-oxo-α-(3-phenylpropyl)-]
- IC50 (MMP-9): 82 nM
- IC50 (MMP-3): 78 nM

SMILES: O=C(CC(CSc1ccc([N+](=O)[O-])cc1)C(=O)O)c1ccc(-c2ccc(Cl)cc2)cc1 (stereo not drawn) [Example 224, [1,1'-Biphenyl]-4-butanoic acid, 4'-chloro-α[[(4-nitrophenyl)thio]methyl]-γ-oxo-]
- IC50 (MMP-9): 550 nM
- IC50 (MMP-3): 680 nM

SMILES: CN(C)CCC(CC(=O)c1ccc(-c2ccc(Cl)cc2)cc1)C(=O)O (stereo not drawn) [Example 263, [1,1'-Biphenyl]-4-butanoic acid, 4'-chloro-α-[2-(dimethylamino)ethyl]-γ-oxo-, hydrochloride]
- inhibition at 5 µM (MMP-9): 21%
- inhibition at 5 µM (MMP-3): 33%

SMILES: Cc1ccccc1SCC(CC(=O)c1ccc(-c2ccc(Cl)cc2)cc1)C(=O)O (stereo not drawn) [Example 232, [1,1'-Biphenyl]-4-butanoic acid, 4'-chloro-α-[[(2-methylphenyl)thio]methyl]-γ-oxo-]
- IC50 (MMP-9): 200 nM
- IC50 (MMP-3): 150 nM

SMILES: O=C(CC(CCCc1ccccc1)C(=O)O)c1ccc(-c2cc(Cl)cc(Cl)c2)cc1 (stereo not drawn) [Example 66, [1,1'-Biphenyl]-4-butanoic acid, 3',5=-dichloro-γ-oxo-α-(3-phenylpropyl)-]
- inhibition at 5 µM (MMP-9): 11%
- inhibition at 5 µM (MMP-3): 7%

SMILES: O=C(CCC(CCCc1ccccc1)C(=O)O)c1ccc(-c2ccc(Cl)cc2)cc1 (stereo not drawn) [Example 341, [1,1'-Biphenyl]-4-pentanoic acid, 4'-chloro-δ-oxo-α-(3-phenylpropyl)-]
- IC50 (MMP-9): 3800 nM
- IC50 (MMP-3): 2400 nM

SMILES: CC(C)CC(CC(=O)c1ccc(-c2ccc(O)cc2)cc1)C(=O)O (stereo not drawn) [Example 31, [1,1'-Biphenyl]-4-butanoic acid, 4'-hydroxy-α-(2-methylpropyl)γ-oxo-]
- inhibition at 5 µM (MMP-9): 29%
- inhibition at 5 µM (MMP-3): 56%

SMILES: O=C(O)[C@@H]1CC=CC[C@H]1C(=O)c1ccc(-c2ccc(Cl)cc2)cc1 (relative stereo) [Example 328, 3-Cyclohexene-1-carboxylic acid, 6-[(4'-chloro[1,1'-biphenyl]-4-yl)carbonyl]-, trans-]
- inhibition at 5 µM (MMP-9): 45%
- inhibition at 5 µM (MMP-3): 49%

SMILES: O=C(CC(CSc1ccc(F)cc1)C(=O)O)c1ccc(-c2ccc(Cl)cc2)cc1 (stereo not drawn) [Example 208, [1,1'-Biphenyl]-4-butanoic acid, 4'-chloro-α-[[(4-fluorophenyl)thio]methyl]-γ-oxo-]
- IC50 (MMP-9): 1050 nM
- IC50 (MMP-3): 140 nM

SMILES: CC(C)(CC(=O)c1ccc(-c2ccc(Cl)cc2)cc1)C(=O)O [Example 282, [1,1'-Biphenyl]-4-butanoic acid, 4'-chloro-α,α-dimethyl-γ-oxo-]
- inhibition at 5 µM (MMP-9): 0%
- inhibition at 5 µM (MMP-3): 2%

SMILES: O=C(CC(CCCc1ccccc1)C(=O)O)c1ccc(-c2cccc(C(F)(F)F)c2)cc1 (stereo not drawn) [Example 81, [1,1'-Biphenyl]-4-butanoic acid, γ-oxo-α-(3-phenylpropyl)-3'-(trifluoromethyl)-]
- inhibition at 5 µM (MMP-9): 12%
- inhibition at 5 µM (MMP-3): 30%

SMILES: O=C(CC(CCCc1ccccc1)C(=O)O)c1ccc(-c2ccc(OCCO)cc2)cc1 (stereo not drawn) [Example 54, [1,1'-Biphenyl]-4-butanoic acid, 4'-(2-hydroxyethoxy)-γ-oxo-α-(3-phenylpropyl)-]
- IC50 (MMP-9): 700 nM
- IC50 (MMP-3): 190 nM

SMILES: CC(C)SCC(CC(=O)c1ccc(-c2ccc(Cl)cc2)cc1)C(=O)O (stereo not drawn) [Example 239, [1,1'-Biphenyl]-4-butanoic acid, 4'-chloro-α-[[(1-methylethyl)thio]methyl]-γ-oxo-]
- inhibition at 5 µM (MMP-9): 53%
- IC50 (MMP-3): 490 nM

SMILES: O=C(CC(CSc1cccc(F)c1)C(=O)O)c1ccc(-c2ccc(Cl)cc2)cc1 (stereo not drawn) [Example 243, [1,1'-Biphenyl]-4-butanoic acid, 4'-chloro-α[[(3-fluorophenyl)thio]methyl]-γ-oxo-]
- IC50 (MMP-9): 850 nM
- IC50 (MMP-3): 360 nM

SMILES: O=C(CC(CSc1ccccc1F)C(=O)O)c1ccc(-c2ccc(Cl)cc2)cc1 (stereo not drawn) [Example 218, [1,1'-Biphenyl]-4-butanoic acid, 4'-chloro-α-[[(2-fluorophenyl)thio]methyl]-γ-oxo-]
- IC50 (MMP-9): 435 nM
- IC50 (MMP-3): 170 nM

SMILES: COc1ccc(CCC(CC(=O)c2ccc(-c3ccc(Cl)cc3)cc2)C(=O)O)cc1 (stereo not drawn) [Example 187, [1,1'-Biphenyl]-4-butanoic acid, 4'-chloro-α-[2-(4-methoxyphenyl)ethyl]-γ-oxo-]
- IC50 (MMP-9): 1500 nM
- IC50 (MMP-3): 757 nM

SMILES: O=C(CC(CCCc1ccccc1)C(=O)O)c1ccc(-c2ccc(C(F)(F)F)cc2)cc1 (stereo not drawn) [Example 62, [1,1'-Biphenyl]-4-butanoic acid, γ-oxo-α-(3-phenylpropyl)-4'-(trifluoromethyl)-]
- IC50 (MMP-9): 4500 nM
- IC50 (MMP-3): 400 nM

SMILES: C#CCC(CC(=O)c1ccc(-c2ccc(Cl)cc2)cc1)C(=O)O (stereo not drawn) [Example 121, [1,1'-Biphenyl]-4-butanoic acid, 4'-chloro-γ-oxo-α-2-propynyl-]
- inhibition at 5 µM (MMP-9): 45%
- IC50 (MMP-3): 1000 nM

SMILES: O=C(O)CCC1(C(=O)c2ccc(-c3ccc(Cl)cc3)cc2)CCCC1 [Example 340, Cyclopentanepropanoic acid, 1-[(4'-chloro[1,1'-biphenyl]-4-yl)carbonyl]-]
- inhibition at 5 µM (MMP-9): 21%
- inhibition at 5 µM (MMP-3): 14%

SMILES: N#CCc1ccc(-c2ccc(C(=O)CC(CCCc3ccccc3)C(=O)O)cc2)cc1 (stereo not drawn) [Example 50, [1,1'-Biphenyl]-4-butanoic acid, 4'-(cyanomethyl)γ-oxo-α-(3-phenylpropyl)-]
- IC50 (MMP-9): 800 nM
- IC50 (MMP-3): 630 nM

SMILES: O=C(CC(CCCc1ccccc1)C(=O)O)c1ccc(-c2ccsc2)cc1 (stereo not drawn) [Example 76, Benzenepentanoic acid, α-[2-oxo-2-[4-(3-thienyl)phenyl]ethyl]-]
- IC50 (MMP-9): 1800 nM
- IC50 (MMP-3): 1000 nM

SMILES: CC(C)CC(CCC(=O)c1ccc(-c2ccc(Cl)cc2)cc1)C(=O)O (stereo not drawn) [Example 338, [1,1'-Biphenyl]-4-pentanoic acid, 4'-chloro-α-(2-methylpropyl)-δ-oxo-]
- inhibition at 5 µM (MMP-9): 32%
- inhibition at 5 µM (MMP-3): 24%

SMILES: N#Cc1ccc(-c2ccc(C(=O)CC(CCCc3ccccc3)C(=O)O)cc2)cc1 (stereo not drawn) [Example 56, [1,1'-Biphenyl]-4-butanoic acid, 4'-cyano-γ-oxo-α-(3-phenylpropyl)-]
- IC50 (MMP-9): 700 nM
- IC50 (MMP-3): 310 nM

SMILES: CN(C)c1ccc(-c2ccc(C(=O)CC(CCCc3ccccc3)C(=O)O)cc2)cc1 (stereo not drawn) [Example 60, [1,1'-Biphenyl]-4-butanoic acid, 4'-(dimethylamino)-γ-oxo-α-(3-phenylpropyl)-]
- IC50 (MMP-9): 180 nM
- IC50 (MMP-3): 600 nM

SMILES: Nc1ccc(-c2ccc(C(=O)CC(CCc3ccccc3)C(=O)O)cc2)cc1 (stereo not drawn) [Example 136, [1,1'-Biphenyl]-4-butanoic acid, 4'-amino-γ-oxo-α-(2-phenylethyl)-]
- inhibition at 5 µM (MMP-9): 50%
- IC50 (MMP-3): 1600 nM

SMILES: O=C(CC(CCCc1ccccc1)C(=O)O)c1ccc(-c2ccc(Cl)c(Cl)c2)cc1 (stereo not drawn) [Example 65, [1,1'-Biphenyl]-4-butanoic acid, 3',4'-dichloro-γ-oxo-α-(3-phenylpropyl)-]
- inhibition at 5 µM (MMP-9): 47%
- IC50 (MMP-3): 840 nM

SMILES: CC(C)(C)OC(=O)Nc1ccc(-c2ccc(C(=O)CC(CCCc3ccccc3)C(=O)O)cc2)cc1 (stereo not drawn) [Example 47, [1,1'-Biphenyl]-4-butanoic acid, 4'-[[(1,1-dimethylethoxy)carbonyl]amino]-γ-oxo-α-(3-phenylpropyl)-]
- inhibition at 5 µM (MMP-9): 22%
- IC50 (MMP-3): 560 nM

SMILES: O=C(CC(CSc1ccncc1)C(=O)O)c1ccc(-c2ccc(Cl)cc2)cc1 (stereo not drawn) [Example 222, [1,1'-Biphenyl]-4-butanoic acid, 4'-chloro-γ-oxo-α-[(4-pyridinylthio)methyl]-]
- IC50 (MMP-9): 1800 nM
- IC50 (MMP-3): 610 nM

SMILES: O=C(CC(C(=O)O)N1CCSCC1)c1ccc(-c2ccc(Cl)cc2)cc1 (stereo not drawn) [Example 259]
- inhibition at 5 µM (MMP-9): 37%
- IC50 (MMP-3): 2600 nM

SMILES: O=C(c1ccc(-c2ccc(Cl)cc2)cc1)[C@H]1C[C@H]1C(=O)O (relative stereo) [Example 292, Cyclopropanecarboxylic acid, 2-[(4'-chloro[1,1'-biphenyl]-4-yl)carbonyl]-, cis-, reference compound]
- inhibition at 5 µM (MMP-9): 12%
- inhibition at 5 µM (MMP-3): 21%

SMILES: O=C(CC(CCCc1ccccc1)C(=O)O)c1ccc(-c2cc(C(F)(F)F)cc(C(F)(F)F)c2)cc1 (stereo not drawn) [Example 79, [1,1'-Biphenyl]-4-butanoic acid, γ-oxo-α-(3-phenylpropyl)-3',5'-bis(trifluoromethyl)-]
- inhibition at 5 µM (MMP-9): 9%
- inhibition at 5 µM (MMP-3): 12%

SMILES: Cc1ccc(CCCC(CC(=O)c2ccc(-c3ccc(Cl)cc3)cc2)C(=O)O)cc1 (stereo not drawn) [Example 184, [1,1'-Biphenyl]-4-butanoic acid, 4'-chloro-α[3-(4-methylphenyl)propyl]-γ-oxo-]
- inhibition at 5 µM (MMP-9): 41%
- IC50 (MMP-3): 280 nM

SMILES: O=C(O)[C@H]1C2CCC(CC2)[C@@H]1C(=O)c1ccc(-c2ccc(Cl)cc2)cc1 (relative stereo) [Example 331, Bicyclo[2.2.2]octane-2-carboxylic acid, 3-[(4'-chloro[1,1'-biphenyl]-4-yl)carbonyl]-, trans-]
- inhibition at 5 µM (MMP-9): 18%
- inhibition at 5 µM (MMP-3): 15%
